Reference: ChEMBL document CHEMBL3046650, “Hydrogenated and Dichiorinated N-Phthaloyl-L-threonines and Their Dehydrated Phthalimides with Root Growth-promoting Activity for Rice Seedings” (J Pestic Sci, 2000)
Calls of active or inactive are those of the source. The rule behind the calls is not given here.

Legend:
Oryza sativa [1] = assay: Growth promoting activity in Oryza sativa cv. Koshihikari (rice) seedling root at 1 x 10' -5 M relative to control; format: functional, organism-based
Lactuca sativa [2] = assay: Phytotoxicity against Lactuca sativa cv. Gokuwase-CISCO (lettuce) seedling assessed as hypocotyl necrosis at 1 x 10' -3 M; format: organism-based; conditions: in vivo, 1000 µM
[3] = test system: Brassica rapa subsp. pekinensis; assay: Growth promoting activity in Brassica rapa subsp. pekinensis (Chinese cabbage) cv. Kinshu seedling root at 1 x 10' -6 to 1 x 10' -3 M; format: functional, organism-based
[4] = test system: Brassica rapa subsp. pekinensis; assay: Phytotoxicity against Brassica rapa subsp. pekinensis (Chinese cabbage) cv. Kinshu seedling assessed as root growth inhibition at 1 x 10' -6 to 1 x 10' -3 M; format: organism-based; conditions: in vivo
Lactuca sativa [5] = assay: Phytotoxicity against Lactuca sativa cv. Gokuwase-CISCO (lettuce) seedling assessed as root necrosis at 1 x 10' -3 M; format: organism-based; conditions: in vivo, 1000 µM
Vigna mungo [6] = assay: Growth promoting activity in Vigna mungo (black gram) seedling hypocotyl at 1 x 10' -6 to 1 x 10' -3 M; format: functional, organism-based
Lactuca sativa [7] = assay: Growth promoting activity in Lactuca sativa cv. Gokuwase-CISCO (lettuce) seedling root at 1 x 10' -6 to 1 x 10' -3 M; format: functional, organism-based
Oryza sativa [8] = assay: Growth promoting activity in Oryza sativa cv. Koshihikari (rice) seedling shoot at 1 x 10' -5 M; format: functional, organism-based
Oryza sativa [9] = assay: Phytotoxicity against Oryza sativa cv. Koshihikari (rice) seedling assessed as root necrosis at 1 x 10' -3 M; format: organism-based; conditions: in vivo, 1000 µM
Oryza sativa [10] = assay: Growth promoting activity in Oryza sativa cv. Koshihikari (rice) seedling root at 1 x 10' -4 M relative to control; format: functional
Lactuca sativa [11] = assay: Growth promoting activity in Lactuca sativa cv. Gokuwase-CISCO (lettuce) seedling hypocotyl at 1 x 10' -6 to 1 x 10' -3 M; format: functional, organism-based
Vigna mungo [12] = assay: Phytotoxicity against Vigna mungo (black gram) seedling assessed as hypocotyl growth inhibition at 1 x 10' -6 to 1 x 10' -3 M; format: organism-based; conditions: in vivo
Vigna mungo [13] = assay: Growth promoting activity in Vigna mungo (black gram) seedling root at 1 x 10' -6 to 1 x 10' -3 M; format: functional, organism-based
Vigna mungo [14] = assay: Phytotoxicity against Vigna mungo (black gram) seedling assessed as root growth inhibition at 1 x 10' -6 to 1 x 10' -3 M; format: organism-based; conditions: in vivo
Oryza sativa [15] = assay: Phytotoxicity against Oryza sativa cv. Koshihikari (rice) seedling assessed as shoot growth inhibition; format: organism-based; conditions: in vivo
[16] = test system: Brassica rapa subsp. pekinensis; assay: Growth promoting activity in Brassica rapa subsp. pekinensis (Chinese cabbage) cv. Kinshu seedling root at 1 x 10' -3 M; format: functional, organism-based
Lactuca sativa [17] = assay: Phytotoxicity against Lactuca sativa cv. Gokuwase-CISCO (lettuce) seedling assessed as hypocotyl growth inhibition at 1 x 10' -3 M; format: organism-based; conditions: in vivo, 1000 µM
[18] = test system: Brassica rapa subsp. pekinensis; assay: Phytotoxicity against Brassica rapa subsp. pekinensis (Chinese cabbage) cv. Kinshu seedling assessed as root growth inhibition at 1 x 10' -4 M; format: organism-based; conditions: in vivo, 100 µM
Oryza sativa [19] = assay: Phytotoxicity against Oryza sativa cv. Koshihikari (rice) seedling assessed as root growth inhibition at 1 x 10' -3 M; format: organism-based; conditions: in vivo, 1000 µM

Structure (SMILES)	Activity (Oryza sativa [1])	Activity (Lactuca sativa [2])	Activity [3]	Activity [4]	Activity (Lactuca sativa [5])	Activity (Vigna mungo [6])	Activity (Lactuca sativa [7])	Activity (Oryza sativa [8])	Activity (Oryza sativa [9])	fold change (FC) (Oryza sativa [10])	Activity (Lactuca sativa [11])	Activity (Vigna mungo [12])	Activity (Vigna mungo [13])	Activity (Vigna mungo [14])	Activity (Oryza sativa [15])	Activity [16]	Activity (Lactuca sativa [17])	Activity [18]	Activity (Oryza sativa [19])
C/C=C(/C(=O)O)N1C(=O)[C@H]2CCCC[C@H]2C1=O	inactive	Toxic	inactive	Non-toxic	Toxic	inactive	inactive	Active	Non-toxic	2.1	inactive	Non-toxic	inactive	Non-toxic	Non-toxic				
C/C=C(/C(=O)O)N1C(=O)[C@H]2CC=CC[C@H]2C1=O	inactive				Toxic	inactive	inactive		Non-toxic	2.1	inactive	Non-toxic	inactive	Non-toxic		Active	Toxic		
C/C=C(/C(=O)O)N1C(=O)C2=C(CCCC2)C1=O	inactive				Toxic	inactive	inactive	Active	Toxic	2.1	inactive	Non-toxic	inactive	Non-toxic		Active	Toxic	Toxic	
C/C=C(/C(=O)O)N1C(=O)c2ccccc2C1=O	Active				Toxic	inactive	inactive			2.1	inactive	Non-toxic	inactive	Non-toxic		Active	Toxic		Toxic
C/C=C(/C(=O)O)N1C(=O)[C@H]2CCCC[C@@H]2C1=O (relative stereo)	inactive		inactive	Non-toxic	Toxic	inactive	inactive		Non-toxic	2.1	inactive	Non-toxic	inactive	Non-toxic	Non-toxic		Toxic		
C/C=C(/C(=O)O)N1C(=O)c2cc(Cl)c(Cl)cc2C1=O [4,5-Cl2P-BTEA]	Active	Toxic	inactive	Non-toxic	Toxic	inactive	inactive		Non-toxic	2.1	inactive	Non-toxic	inactive	Non-toxic					
C[C@@H](O)[C@@H](C(=O)O)N1C(=O)[C@H]2CCCC[C@H]2C1=O [CIS-1,2,3,4,5,6-HEXAHYDROPHTHALOYL-L-THREONINE]	inactive	Toxic	inactive	Non-toxic	Toxic	inactive	inactive	Active	Non-toxic	1.6	inactive	Non-toxic	inactive	Non-toxic	Non-toxic				
C[C@@H](O)[C@@H](C(=O)O)N1C(=O)[C@H]2CC=CC[C@H]2C1=O [CIS-1,2,3,6-TETRAHYDROPHTHALOYL-L-THREONINE]	inactive	Toxic	inactive	Non-toxic	Toxic	inactive	inactive		Non-toxic	1.6	inactive	Non-toxic	inactive	Non-toxic					
C[C@@H](O)[C@@H](C(=O)O)N1C(=O)c2ccccc2C1=O [N PHTHALOYL-L-THREONINE]	Active		inactive	Non-toxic	Toxic	inactive	inactive			1.6	inactive	Non-toxic	inactive	Non-toxic			Toxic		Toxic
C[C@@H](O)[C@@H](C(=O)O)N1C(=O)C2=C(CCCC2)C1=O [N-(3,4,5,6-TETRAHYDROPHTHALOYL)-L-THREONINE]	inactive		inactive	Non-toxic	Toxic	inactive	inactive	Active	Toxic	1.6	inactive	Non-toxic	inactive	Non-toxic			Toxic		
C[C@@H](O)[C@@H](C(=O)O)N1C(=O)c2cc(Cl)c(Cl)cc2C1=O [N-(4,5-DICHLOROPHTHALOYL)-L-THREONINE]	Active	Toxic	inactive	Non-toxic	Toxic	inactive	inactive		Non-toxic	1.6	inactive	Non-toxic	inactive	Non-toxic					
C[C@@H](O)[C@@H](C(=O)O)N1C(=O)[C@H]2CCCC[C@@H]2C1=O [TRANS-1,2,3,4,5,6-HEXAHYDROPHTHALOYL-L-THREONINE]	inactive		inactive	Non-toxic	Toxic	inactive	inactive		Non-toxic	1.6	inactive	Non-toxic	inactive	Non-toxic	Non-toxic		Toxic		
